Reference: US20240366612A1, “COMPOUNDS AND METHODS FOR MODULATING NUCLEIC ACID SPLICING” (REMIX THERAPEUTICS INC., priority 2021, published 2024)
Where a name gives a salt, the structure may show the parent alone.

tested on: HiBiT-tagged HTT protein in K562 cells; test: HiBiT protein abundance assay, HTT; type: cell-based, human; conditions: HiBiT-modified K562 cells, 24 hours, luminescence
Method: Compounds described herein were used to screen for effects on quantitative protein abundance using a HiBit assay system (Promega). Quantitative protein abundance was determined by measuring the protein levels of HiBit-tagged protein targets expressed in cell culture via luminescence using the Nano-Glo HiBiT Lytic Detection System, which uses a split complementation assay format to reconstitute NanoBiT enzyme to generate a luminescent signal. A protein abundance assay was developed such that endogenous protein targets could be modified with the HiBiT peptide tag and their abundance could be assessed after compound treatment. Briefly, K562 cell lines containing a HiBiT-modification were treated with various compounds described herein (e.g., compounds of Formulas (I), (II), or (III)). After treatment for 24 hours, the protein abundance of a specific target was determined by measuring luminescence.
• Promega Nano-Glo HiBiT Lytic Detection System (cat #N3030) • Corning 384-well TC-treated microplates (cat #3570) • Synthego Engineered Cells Knock-In Clones
Cells were maintained in IMDM with 10% FBS. Before the assay, cells were diluted with […] growth media (IMDM+1% FBS media) and were seeded in a 384-well plate at a density of 10000 cells/well (for each cell line listed in Table 5). Each compound was prepared as a 10-point 3-fold serial dilution in DMSO with the top dose at a final concentration of 10 μM in the well. Unmodified K562 cells were added at the previously specified density with DMSO to serve as an assay baseline and positive control (PC) and DMSO only with the respective modified cell lines was added to the negative control (NC) columns. Final DMSO concentration was kept at or below 0.25%. Treated cell plates were placed in an incubator at 37° C. with 5% CO2 for 24 hours. After 24 hours, 25 μL of Complete HiBit Lytic reagent was added to each well at room temperature (e.g. one plate requiring 10 mL Lytic Buffer, 100 μL LgBiT Protein, 200 μL Lytic Substrate), shaken for 5 minutes at 600 RPM, then left to sit for 10 minutes for signal to stabilize before reading on a Spark Cyto plate reader (Tecan) with a 500 ms measurement time.
To determine compound effects on protein abundance of each target in Table 5, the percent response for each respective cell line was calculated at each compound concentration as follows:
For the normalized response at each concentration, a four-parameter logistical regression was fit to the data and the response was interpolated at the 50% value to determine a concentration for protein abundance at 50% (IC50) the untreated control.

Compound | IC50
Cc1cn2cc(-n3cnc4nc(N5CCN(C)CC5)sc4c3=O)cc(C(F)(F)F)c2n1 [Compound 230, 6-(2-methyl-8-(trifluoromethyl)imidazo[1,2-a]pyridin-6-yl)-2-(4-methylpiperazin-1-yl)thiazolo[4,5-d]pyrimidin-7(6H)-one] | > 10000 nM
Cc1cn2cc(-n3cnc4nc(N5CCN(C)CC5)sc4c3=O)cc(F)c2n1 [Compound 228, 6-(8-fluoro-2-methylimidazo[1,2-a]pyridin-6-yl)-2-(4-methylpiperazin-1-yl)thiazolo[4,5-d]pyrimidin-7(6H)-one] | 1000 to 10000 nM
Cc1cn2cc(-c3cc4ncn([C@H]5CCNC[C@@H]5F)c(=O)c4s3)cc(F)c2n1 (relative stereo) [Compound 272, trans-6-{8-fluoro-2-methylimidazo[1,2-a]pyridin-6-yl}-3-[3-fluoropiperidin-4-yl]thieno[3,2-d]pyrimidin-4-one] | 1000 to 10000 nM
Cc1cn2cc(-c3cc(=O)n4nc(N5CCNC6(CC6)C5)sc4n3)cc(F)c2n1 [Compound 209, 7-(8-fluoro-2-methylimidazo[1,2-a]pyridin-6-yl)-2-(4,7-diazaspiro[2.5]octan-7-yl)-5H-[1,3,4]thiadiazolo[3,2-a]pyrimidin-5-one] | 1000 to 10000 nM
Cc1nc(-c2cc3ncn(C4CCNCC4)c(=O)c3s2)cc2cn(C)nc12 [Compound 271] | 1000 to 10000 nM
Cc1cc(-c2nn3c(=O)cc(N4CCNCC4)nc3s2)cc2cn(C)nc12 [Compound 206, 2-(2,7-dimethyl-2H-indazol-5-yl)-7-(piperazin-1-yl)-5H-[1,3,4]thiadiazolo[3,2-a]pyrimidin-5-one] | 1000 to 10000 nM
Cc1cn2nc(-c3cc4ncn(C5CCN(C)CC5)c(=O)c4s3)cc(C)c2n1 [Compound 239, 6-(2,8-dimethylimidazo[1,2-b]pyridazin-6-yl)-3-(1-methylpiperidin-4-yl)thieno[3,2-d]pyrimidin-4(3H)-one] | 1000 to 10000 nM
Cc1cn2cc(-c3nn4c(=O)cc(N5CCN(C)C6(CC6)C5)nc4s3)cc(F)c2n1 [Compound 218, 2-(8-fluoro-2-methylimidazo[1,2-a]pyridin-6-yl)-7-(4-methyl-4,7-diazaspiro[2.5]octan-7-yl)-5H-[1,3,4]thiadiazolo[3,2-a]pyrimidin-5-one] | 1000 to 10000 nM
Cc1cn2cc(-c3cc4ncn(C5CNCCC5=O)c(=O)c4s3)cc(F)c2n1 (stereo not drawn) [Compound 279, 3-(6-{8-fluoro-2-methylimidazo[1,2-a]pyridin-6-yl}-4-oxothieno [3,2-d]pyrimidin-3-yl)piperidin-4-one] | > 10000 nM
Cc1cn2cc(-c3cc4ncn([C@H]5CCNC[C@H]5F)c(=O)c4s3)cc(F)c2n1 (relative stereo) [Compound 273, cis-6-{8-fluoro-2-methylimidazo[1,2-a]pyridin-6-yl}-3-[3-fluoropiperidin-4-yl]thieno[3,2-d]pyrimidin-4-one] | 1000 to 10000 nM
Cc1cn2nc(-c3nc4sc(N5CCN(C)CC5)nc4c(=O)[nH]3)cc2c(C)n1 [Compound 268] | > 10000 nM
Cc1cn2cc(N3CCc4cc(C5CCNCC5)sc4C3=O)cc(F)c2n1 [Compound 800, 6-[8-fluoro-2-methylimidazo[1,2-a]pyridin-6-yl]-2-(piperidin-4-yl)-4H,5H-thieno[2,3-c]pyridin-7-one] | > 10000 nM
Cc1cn2cc(-c3nn4c(=O)cc(N5CCNC6(CC6)C5)nc4s3)cc(F)c2n1 [Compound 216, 2-(8-fluoro-2-methylimidazo[1,2-a]pyridin-6-yl)-7-(4,7-diazaspiro[2.5]octan-7-yl)-5H-[1,3,4]thiadiazolo[3,2-a]pyrimidin-5-one] | 1000 to 10000 nM
Cc1cc(-c2nc3ncn(C4CCN(C)CC4)c(=O)c3s2)cc2cn(C)nc12 [Compound 234, 2-(2,7-dimethyl-2H-indazol-5-yl)-6-(1-methylpiperidin-4-yl)thiazolo[4,5-d]pyrimidin-7(6H)-one] | 100 to 1000 nM
COc1cc(-c2cc3ncn(C4CCNCC4)c(=O)c3s2)ccn1 [Compound 263] | 1000 to 10000 nM
Cc1cn2cc(-c3nn4c(=O)cc(N5CCNCC5)nc4s3)cc(F)c2n1 [Compound 214, 2-(8-fluoro-2-methylimidazo[1,2-a]pyridin-6-yl)-7-(piperazin-1-yl)-5H-[1,3,4]thiadiazolo[3,2-a]pyrimidin-5-one] | > 10000 nM
Cn1cc2cc(-c3cc4ncn(C5CCNCC5)c(=O)c4s3)cc(F)c2n1 [Compound 257] | 1000 to 10000 nM

The remaining lines, values ahead:

IC50 | Compound
100 to 1000 nM | Cn1cc2cc(-c3cc4ncn(C5CCNCC5)c(=O)c4s3)c(F)cc2n1 [Compound 258]
100 to 1000 nM | Cc1cn2cc(-c3cc4ncn(C5CCNC5)c(=O)c4s3)cc(F)c2n1 (stereo not drawn) [Compound 270, 6-{8-fluoro-2-methylimidazo[1,2-a]pyridin-6-yl}-3-(pyrrolidin-3-yl)thieno[3,2-d]pyrimidin-4-one]
100 to 1000 nM | Cc1cn2nc(-c3cc4ccn(C5CCNCC5)c(=O)c4s3)cc(C)c2n1 [Compound 806, 2-(2,8-dimethylimidazo[1,2-b]pyridazin-6-yl)-6-(piperidin-4-yl)thieno[2,3-c]pyridin-7(6H)-one]
< 100 nM | Cc1cc(-c2cc3cnn(C4CCNCC4)c(=O)c3s2)cc2cn(C)nc12 [Compound 802, 2-(2,7-dimethyl-2H-indazol-5-yl)-6-(piperidin-4-yl)thieno[2,3-d]pyridazin-7(6H)-one]
100 to 1000 nM | Cc1cn2nc(-c3nc4sc(N5CCNCC5)nc4c(=O)[nH]3)cc2c(C)n1 [Compound 267]
100 to 1000 nM | Cc1cn2cc(-c3cc4ncn([C@H]5CCN[C@@H](C)C5)c(=O)c4s3)cc(F)c2n1 (relative stereo) [Compound 278, 6-{8-fluoro-2-methylimidazo[1,2-a]pyridin-6-yl}-3-[(cis)-2-methylpiperidin-4-yl]thieno[3,2-d]pyrimidin-4-one hydrochloride]
100 to 1000 nM | Cn1cc2cc(-c3cc4ncn(C5CCNCC5)c(=O)c4s3)cc(C#N)c2n1 [Compound 259]
100 to 1000 nM | Cc1cn2cc(-c3cc4ncn(C5CCCNCC5)c(=O)c4s3)cc(F)c2n1 (stereo not drawn) [Compound 275, 3-(azepan-4-yl)-6-{8-fluoro-2-methylimidazo[1,2-a]pyridin-6-yl}thieno[3,2-d]pyrimidin-4-one]
100 to 1000 nM | Cc1cc(-c2cc3ncn(C4CCN(C)CC4)c(=O)c3s2)cc2cn(C)nc12 [Compound 237, 6-(2,7-dimethyl-2H-indazol-5-yl)-3-(1-methylpiperidin-4-yl)thieno[3,2-d]pyrimidin-4(3H)-one]
< 100 nM | Cc1cc(-c2nc3ncn(C4CCNCC4)c(=O)c3s2)cc2cn(C)nc12 [Compound 233, 2-(2,7-dimethyl-2H-indazol-5-yl)-6-(piperidin-4-yl)thiazolo[4,5-d]pyrimidin-7(6H)-one]
100 to 1000 nM | Cc1cn2cc(-c3cc4ccn(C5CCN(C)CC5)c(=O)c4s3)cc(F)c2n1 [Compound 808, 2-(8-fluoro-2-methylimidazo[1,2-a]pyridin-6-yl)-6-(1-methylpiperidin-4-yl)thieno[2,3-c]pyridin-7(6H)-one]
< 100 nM | Cc1cc(-c2cc3ncn(C4CCNCC4)c(=O)c3s2)cc2cn(C)nc12 [Compound 236, 6-(2,7-dimethyl-2H-indazol-5-yl)-3-(piperidin-4-yl)thieno[3,2-d]pyrimidin-4(3H)-one]
< 100 nM | Cc1cn2cc(-c3nc4ncn(C5CCNCC5)c(=O)c4s3)cc(F)c2n1 [Compound 232, 2-(8-fluoro-2-methylimidazo[1,2-a]pyridin-6-yl)-6-(piperidin-4-yl)thiazolo[4,5-d]pyrimidin-7(6H)-one]
